The assay has as its system bacterial strain LF82 binding to the glycoprotein BSA-(Mannose)3. Description: Bacterial Binding Assay (BBA). Conditions: read-out: Bacterial Binding Assay IC50, LF82/Luciferase strain binding to BSA-(Man)3 coated plates, luminescence. It is filed as cell-based, Escherichia coli. The text has this: The purpose of the Bacterial Binding Assay (BBA) is to determine the inhibition activity of
selective FimH antagonists on the bacterial strain LF82 binding to the glycoprotein BSA-(Mannose)3.
Below is a list of the Materials used to run the BBA are described below. • 1. LB broth: Supplier: Gibco, #10855 • 2. D-PBS: Supplier: Wisent, #311-425-CL • 3. LB agar plates • 4. 96-well black plate (high binding): Supplier: Costar, #3925 • 5. TopSeal™-A adhesive sealing films; Supplier PerkinElmer, #6005185 • 6. Carbonate-bicarbonate buffer pH 9.6 tablets, Supplier: Medicago, #09-8922-24 • 7. Water, Supplier: Gibco, #15230-162 • 8. Bovine serum albumin (BSA): Supplier: Sigma, #A-7888 • 9. (Man)3-BSA (α1-3, α1-6 Mannotriose-BSA, 1 mg), V-Labs, #NGP1336, lot #HGDX37-169-1 • 10. Tween 20: Supplier: Sigma, #P9416 • 11. Bright-Glo Luciferase Assay System: Supplier: Promega, #E2610 • 12. LF82/Luciferase strain: Invasive ability of an Escherichia coli strain isolated from the ileal mucosa of a patient with Crohn ? disease. Boudeau J, Glasser A L, Masseret E, Joly B, Darfeuille-Michaud A, Infect Immun. 1999, 67(9), 4499-509
Solutions and buffers used to run the BBA are described below. • 1. 0.04M carbonate-bicarbonate buffer (coating buffer) • 2. 40 μg/mL BSA-(Man)3: Dissolve 1 mg of (Man)3-BSA in 25 mL of water. • 3. 4000 μg/mL BSA • 4. 40 μg/mL BSA • 5. 1 μg/mL BSA-(Man)3: 150 μL of 40 μg/mL BSA-(Man)3+5.85 mL of 40 μg/mL BSA • 6. 0.5 μg/mL BSA-(Man)3 in 0.02M carbonate-bicarbonate buffer. • 7. 20 μg/mL BSA in 0.02M carbonate-bicarbonate buffer • 8. Blocking buffer (2% BSA/DPBS): 1 g of BSA in 50 mL D-PBS • 9. 2× binding buffer (0.2% BSA/D-PBS): 5 mL of blocking buffer+45 mL D-PBS. • 10. Washing buffer (D-PBS/0.01% Tween 20): 10 μL of Tween 20 in 100 mL D-PBS. • 11. 1× Bright-Glo Luciferase substrate: Dilute 1:1 the Bright-Glo Luciferase Assay System with D-PBS The experimental protocol to run the BBA is described below.
Overnight culture of LF82/Luciferase strain: Into two Falcon 50 mL tubes, add 20 mL of LB+20 μL of 50 mg/mL Kanamycin and inoculate with a loop from glycerol stock of the LF82/Luciferase strain. Incubate overnight at 37° C. with no shaking.
Glycoprotein coating of 96-well plates: Add 100 μL/well of 0.5-2 μg/mL BSA-(Man)3. 20 μg/mL BSA is used as the control background. Seal plate using an adhesive sealing film and incubate overnight at room temperature. Wash the 96-well plate three times with 150 μL/well of D-PBS, add 170 μL/well of blocking solution and incubate 45 min (minimum) at room temperature.
Preparation of bacterial suspension: Mix the two cultures tubes (40 mL) and perform a 1:10 dilution in LB (900 μl LB+100 μl culture. Measure optical density (OD) of the bacterial cultures. OD1 ˜5×10^8 cells/mL. Centrifuge LF82 culture for 20 min at 3500 rpm at room temperature. Re-suspend bacterial pellet in D-PBS and centrifuge again for 20 min at 3500 rpm. Re-suspend bacterial pellet in D-PBS to obtain a bacterial concentration of 2×10^9 bacteria/mL. Dilute 1/10 in D-PBS to obtain a final bacterial concentration of 2×10^8 bacteria/mL (=107 bacteria/50 μL). Perform 1/10 serial dilutions in LB of each bacterial suspension, plate 10 μL of dilutions on LB agar plates (final dilutions of 10^−7) and incubate overnight at 37° C. and count CFUs to determine the actual bacteria density in the assay.
Bacterial binding assay: Add 147 μL 2× binding buffer to compound plate (containing 3 μL of compound). After blocking step is performed (at least 45 min), wash plates three times with 200 μL/well of D-PBS. With a 100 μL multichannel manual pipettor, add 50 µL/well of compound diluted in 2× binding buffer. With a 100 μL multichannel manual pipettor, add 50 μL/well of bacterial suspension. Agitate at slow speed for 1 min and incubate 40-75 min at room temperature. Wash 5 times with 150 μL/well of washing buffer and then once with D-PBS. Add 100 μL/well of 1× Bright-Glo Luciferase substrate. […]
`CCOC(=O)c1c(C#C[C@H]2O[C@H](CO)[C@@H](O)[C@H](O)[C@@H]2O)ccc2c1C1(CCNCC1)c1cc(C#C[C@H]3O[C@H](CO)[C@@H](O)[C@H](O)[C@@H]3O)ccc1-2` [Compound 209, ethyl 2,7-bis[2-[(2R,3S,4R,5S,6R)-3,4,5-trihydroxy-6-(hydroxymethyl)tetrahydropyran-2-yl]ethynyl]spiro[fluorene-9,4 piperidine]-1 carboxylate]: the IC50 amounted to 0.07 nM.

As for `Cc1cc(C#C[C@H]2O[C@H](CO)[C@@H](O)[C@H](O)[C@@H]2O)ccc1-c1ccc(C#C[C@H]2O[C@H](CO)[C@@H](O)[C@H](O)[C@@H]2O)cc1C` [Compound 124, (2R,3S,4R,5S,6R)-2-(hydroxymethyl)-6-[2-[3-methyl-4-[2-methyl-4-[2-[(2R,3S,4R,5S,6R)-3,4,5-trihydroxy-6-(hydroxymethyl)tetrahydropyran-2-yl]ethynyl]phenyl]phenyl]ethynyl]tetrahydropyran-3,4,5-triol], the IC50 amounted to 27 nM.

Turning to `CCc1cc(C#C[C@H]2O[C@H](CO)[C@@H](O)[C@H](O)[C@@H]2O)ccc1C#C[C@H]1O[C@H](CO)[C@@H](O)[C@H](O)[C@@H]1O` [Compound 98, (2R,3S,4R,5S,6R)-2-[2-[3-ethyl-4-[2-[(2R,3S,4R,5S,6R)-3,4,5-trihydroxy-6-(hydroxymethyl)tetrahydropyran-2-yl]ethynyl]phenyl]ethynyl]-6-(hydroxymethyl)tetrahydropyran-3,4,5-triol], the IC50 amounted to 12 nM.

Consider `CCc1cc(C#C[C@H]2O[C@H](CO)[C@@H](O)[C@H](O)[C@@H]2O)c(CC)cc1C#C[C@H]1O[C@H](CO)[C@@H](O)[C@H](O)[C@@H]1O` [Compound 86, (2R,3S,4R,5S,6R)-2-[2-[2,5-diethyl-4-[2-[(2R,3S,4R,5S,6R)-3,4,5-trihydroxy-6-(hydroxymethyl)tetrahydropyran-2-yl]ethynyl]phenyl]ethynyl]-6-(hydroxymethyl)tetrahydropyran-3,4,5-triol], for which the IC50 was found to be 22 nM.

Turning to `O=C(c1c(C#C[C@H]2O[C@H](CO)[C@@H](O)[C@H](O)[C@@H]2O)ccc2c1C1(CCNCC1)c1cc(C#C[C@H]3O[C@H](CO)[C@@H](O)[C@H](O)[C@@H]3O)ccc1-2)C1CCC1` [Compound 226, [2,7-bis[2-[(2R,3S,4R,5S,6R)-3,4,5-trihydroxy-6-(hydroxymethyl)tetrahydropyran-2-yl]ethynyl]spiro[fluorene-9,4piperidine]-1yl]-cyclobutyl-methanone], the IC50 was determined as 0.06 nM.

As to `OCc1cc(C#C[C@H]2O[C@H](CO)[C@@H](O)[C@H](O)[C@@H]2O)c(CO)cc1C#C[C@H]1O[C@H](CO)[C@@H](O)[C@H](O)[C@@H]1O` [Compound 85, (2R,3S,4R,5S,6R)-2-[2-[2,5-bis(hydroxymethyl)-4-[2-[(2R,3S,4R,5S,6R)-3,4,5-trihydroxy-6-(hydroxymethyl)tetrahydropyran-2-yl]ethynyl]phenyl]ethynyl]-6-(hydroxymethyl)tetrahydropyran-3,4,5-triol], the IC50 was found to be 160 nM.

On to `CN(C)CC(O)Cn1c2ccc(C#C[C@H]3O[C@H](CO)[C@@H](O)[C@H](O)[C@@H]3O)cc2c2cc(C#C[C@H]3O[C@H](CO)[C@@H](O)[C@H](O)[C@@H]3O)ccc21` (stereo partly drawn) [Compound 173, (2R,3S,4R,5S,6R)-2-[2-[9-[3-(dimethylamino)-2-hydroxy-propyl]-6-[2-[(2R,3S,4R,5S,6R)-3,4,5-trihydroxy-6-(hydroxymethyl)tetrahydropyran-2-yl]ethynyl]carbazol-3-yl]ethynyl]-6-(hydroxymethyl)tetrahydropyran-3,4,5-triol], for which the IC50 was 9.3 nM.

As to `OC[C@H]1O[C@H](C#Cc2ccc3c(c2)C(=NO)c2cc(C#C[C@H]4O[C@H](CO)[C@@H](O)[C@H](O)[C@@H]4O)ccc2-3)[C@@H](O)[C@@H](O)[C@@H]1O` [Compound 163, 2,7-bis[2-[(2R,3S,4R,5S,6R)-3,4,5-trihydroxy-6-(hydroxymethyl)tetrahydropyran-2-yl]ethynyl]fluoren-9-one oxime], the IC50 is 18 nM.

Regarding `OC[C@H]1O[C@H](C#Cc2ccc3c(c2)sc2cc(C#C[C@H]4O[C@H](CO)[C@@H](O)[C@H](O)[C@@H]4O)ccc23)[C@@H](O)[C@@H](O)[C@@H]1O` [Compound 109, (2R,3S,4R,5S,6R)-2-(hydroxymethyl)-6-[2-[7-[2-[(2R,3S,4R,5S,6R)-3,4,5-trihydroxy-6-(hydroxymethyl)tetrahydropyran-2-yl]ethynyl]dibenzothiophen-3-yl]ethynyl]tetrahydropyran-3,4,5-triol], the IC50 worked out at 20 nM.

Consider `COc1cc(C#C[C@H]2O[C@H](CO)[C@@H](O)[C@H](O)[C@@H]2O)c(OC)cc1C#C[C@H]1O[C@H](CO)[C@@H](O)[C@H](O)[C@@H]1O` [Compound 96, (2R,3S,4R,5S,6R)-2-[2-[2,5-dimethoxy-4-[2-[(2R,3S,4R,5S,6R)-3,4,5-trihydroxy-6-(hydroxymethyl)tetrahydropyran-2-yl]ethynyl]phenyl]ethynyl]-6-(hydroxymethyl)tetrahydropyran-3,4,5-triol], for which the IC50 came out at 66 nM.

Regarding `OC[C@H]1O[C@H](C#Cc2cccc3cccc(C#C[C@H]4O[C@H](CO)[C@@H](O)[C@H](O)[C@@H]4O)c23)[C@@H](O)[C@@H](O)[C@@H]1O` [Compound 137, (2R,3S,4R,5S,6R)-2-(hydroxymethyl)-6-[2-[8-[2-[(2R,3S,4R,5S,6R)-3,4,5-trihydroxy-6-(hydroxymethyl)tetrahydropyran-2-yl]ethynyl]-1-naphthyl]ethynyl]tetrahydropyran-3,4,5-triol], the IC50 stood at 700 nM.

As for `CC(C)CC1(O)c2cc(C#C[C@H]3O[C@H](CO)[C@@H](O)[C@H](O)[C@@H]3O)ccc2-c2ccc(C#C[C@H]3O[C@H](CO)[C@@H](O)[C@H](O)[C@@H]3O)cc21` [Compound 169, (2R,3S,4R,5S,6R)-2-[2-[9-hydroxy-9-isobutyl-7-[2-[(2R,3S,4R,5S,6R)-3,4,5-trihydroxy-6-(hydroxymethyl)tetrahydropyran-2-yl]ethynyl]fluoren-2-yl]ethynyl]-6-(hydroxymethyl)tetrahydropyran-3,4,5-triol], the IC50 worked out at 0.66 nM.

In the case of `OC[C@H]1O[C@H](C#Cc2cc(-c3ccccc3)c(C#C[C@H]3O[C@H](CO)[C@@H](O)[C@H](O)[C@@H]3O)cc2-c2ccccc2)[C@@H](O)[C@@H](O)[C@@H]1O` [Compound 81, (2R,3S,4R,5S,6R)-2-[2-[2,5-dipheny1-4[2-[(2R,3S,4R,5S,6R)-3,4,5-trihydroxy-6-(hydroxymethyl)tetrahydropyran-2-yl]ethynyl]phenyl]ethynyl]-6-(hydroxymethyl)tetrahydropyran-3,4,5-triol], the IC50 was 9 nM.

Regarding `OC[C@H]1O[C@H](c2ccc(-c3ccc([C@H]4O[C@H](CO)[C@@H](O)[C@H](O)[C@@H]4O)cc3F)cc2)[C@@H](O)[C@@H](O)[C@@H]1O` [Compound 62], the IC50 came to 67 nM.

For the origin of these results see patent publication US11634447B2 (priority 2012, dated 2023).
